Where two headings read alike, the source gives them in different places.
Experiments:
[1] = target: T1, catalytic domain of phosphodiesterase 4B enzyme cloned from human brain (Homo sapiens, UniProt Q07343); experiment: PDE4 inhibition assay (PDELight); type: biochemical; conditions: for IC50: 5 uM cAMP, read-out: PDE 4 Inhibition (IC50 in μM)
T1 construct: the catalytic domain of phosphodiesterase 4B enzyme; purchased Scottish Biomedical
Description: In a 96-well plate, the catalytic domain of phosphodiesterase 4B enzyme (40 mU/well) cloned from human brain (Scottish Biomedical) was combined with 5 uM cAMP substrate (Sigma). […] Using a PDELight® kit (Cambrex), the amount of AMP produced in the reaction from the hydrolysis of cAMP was quantified using PDELight AMP Detection Reagent which converts the AMP directly to ATP. The assay uses luciferase, which catalyses the formation of light from the newly formed ATP and luciferin. […] IC50 calculations were plotted using a nonlinear regression curve fit.

[2] = target: T2, recombinant human phosphodiesterase 10A1 enzyme (Homo sapiens, UniProt Q9Y233); experiment: PDE10 inhibition assay (PDELight); type: biochemical; conditions: for IC50: 1 uM cAMP, read-out: PDE 10 Inhibition (IC50 in μM); for PDE-10 inhibition (in words): Table 2
T2 construct: purchased BPS Biosciences; host or cells: Baculovirus infected Sf9 cells
Description: In a 96-well plate, recombinant human phosphodiesterase 10A1 enzyme (10 U/well) expressed in Baculovirus infected Sf9 cells (BPS Biosciences) was combined with 1 uM cAMP substrate (Sigma). […] Using a PDELight® kit (Cambrex), the amount of AMP produced in the reaction from the hydrolysis of cAMP was quantified using PDELight AMP Detection Reagent which converts the AMP directly to ATP. The assay uses luciferase, which catalyses the formation of light from the newly formed ATP and luciferin. The luminescence was read on a Victor Light 1420 luminometer. IC50 calculations were plotted using a nonlinear regression curve fit.

[3] = target: T3, recombinant full length human JNK3 enzyme (Homo sapiens, UniProt P53779); experiment: JNK 3 inhibition assay (ATP depletion, luciferase); type: biochemical; conditions: for IC50: 10 uM ATP, ATF2 substrate
T3 construct: recombinant full length human JNK2 or JNK3 enzyme; purchased Upstate; host or cells: Sf21 cells
Description: In a 96-well plate, recombinant full length human JNK2 or JNK3 enzyme (40 ng) expressed in Sf21 cells (Upstate) was incubated with the substrate ATF2 (3 uM) for 1 hour in the presence of 10 uM ATP. […] The ATP levels were quantified using luciferase with luminescence read on a Victor Light 1420 luminometer. IC50 calculations were plotted using a nonlinear regression curve fit.

[4] = test system: rat chronic constriction injury (CCI) model of neuropathic pain; experiment: Rat chronic constriction injury (CCI) model of neuropathic pain; type: in vivo; conditions: IP, dose not given; 50% paw withdrawal threshold, von Frey
Description: To induce allodynia, male Sprague-Dawley rats underwent chronic constriction injury (CCI) to the sciatic nerve as described by Bennett and Xie, Pain 1988; 33(1):87-107. The plantar surface of the hind paws was stimulated with von Frey filaments (Stoelting) to induce a withdrawal response by blinded personnel. The bending force of fiber required to induce a 50% withdrawal response was calculated following CCI surgery (pre-dosing baseline). N=5-6 allodynic rats received a single IP or oral administration of test compounds or vehicle. Two hours post-dosing, 50% paw withdrawal threshold was determined again by blinded testers using von Frey filaments. The 50% withdrawal threshold prior to CCI surgery, pre-dosing (10 days post-surgery), and 2 hours post-dosing are plotted.
For selected compounds multi-day studies were perfumed with pre-determined schedules for dosing and withdrawal threshold assessments.

[5] = test system: Mouse BV-2 microglial cells; experiment: BV-2 glial cell assay (TNF-α and MCP-1 by Luminex); type: cell-based; conditions: Mus musculus, BV-2, LPS and IFN-γ activated, 20 hours
Description: Mouse BV-2 microglial cells were seeded on 96-well plates at a concentration of 3×10^4 cells/well. Cells were activated with 100 ng/mL LPS and IFN-γ (100 ng/mL) in the presence or absence of test compounds (0-30 uM). Following incubation for 20 hours, cells were spun down and supernatant collected. The supernatant was analyzed via Luminex for the presence of TNF-α and MCP-1.

[6] = target: T4, recombinant full length human JNK2 enzyme (Homo sapiens, UniProt P45984); experiment: JNK 2 inhibition assay (ATP depletion, luciferase); type: biochemical; conditions: 10 uM ATP, ATF2 substrate; read-out: JNK 2 Inhibition (IC50 in μM)
T4 construct: recombinant full length human JNK2 or JNK3 enzyme; purchased Upstate; host or cells: Sf21 cells
Description: In a 96-well plate, recombinant full length human JNK2 or JNK3 enzyme (40 ng) expressed in Sf21 cells (Upstate) was incubated with the substrate ATF2 (3 uM) for 1 hour in the presence of 10 uM ATP. […] IC50 calculations were plotted using a nonlinear regression curve fit.

T2 sequence (Q9Y233 1-779 isoform Q9Y233-1): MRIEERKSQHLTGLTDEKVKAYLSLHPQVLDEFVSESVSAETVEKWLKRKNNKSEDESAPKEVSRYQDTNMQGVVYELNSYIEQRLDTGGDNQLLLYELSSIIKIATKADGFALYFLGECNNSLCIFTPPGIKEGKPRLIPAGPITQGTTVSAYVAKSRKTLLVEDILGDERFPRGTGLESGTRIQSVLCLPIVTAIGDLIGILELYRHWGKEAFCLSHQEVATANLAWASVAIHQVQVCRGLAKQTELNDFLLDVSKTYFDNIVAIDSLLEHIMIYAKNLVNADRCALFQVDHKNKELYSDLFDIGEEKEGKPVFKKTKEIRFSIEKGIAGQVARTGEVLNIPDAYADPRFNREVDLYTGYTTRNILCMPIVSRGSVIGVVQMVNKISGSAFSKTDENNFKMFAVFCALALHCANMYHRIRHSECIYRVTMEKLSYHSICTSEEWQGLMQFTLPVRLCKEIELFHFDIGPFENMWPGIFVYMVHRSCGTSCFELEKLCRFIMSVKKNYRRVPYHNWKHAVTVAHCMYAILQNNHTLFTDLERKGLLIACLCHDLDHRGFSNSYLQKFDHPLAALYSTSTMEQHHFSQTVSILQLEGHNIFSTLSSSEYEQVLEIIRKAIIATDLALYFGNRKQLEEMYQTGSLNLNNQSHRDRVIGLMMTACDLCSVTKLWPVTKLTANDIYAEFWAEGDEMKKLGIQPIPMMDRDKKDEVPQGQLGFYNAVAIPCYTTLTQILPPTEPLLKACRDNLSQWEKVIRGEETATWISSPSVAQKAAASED
T3 sequence (P53779 whole entry): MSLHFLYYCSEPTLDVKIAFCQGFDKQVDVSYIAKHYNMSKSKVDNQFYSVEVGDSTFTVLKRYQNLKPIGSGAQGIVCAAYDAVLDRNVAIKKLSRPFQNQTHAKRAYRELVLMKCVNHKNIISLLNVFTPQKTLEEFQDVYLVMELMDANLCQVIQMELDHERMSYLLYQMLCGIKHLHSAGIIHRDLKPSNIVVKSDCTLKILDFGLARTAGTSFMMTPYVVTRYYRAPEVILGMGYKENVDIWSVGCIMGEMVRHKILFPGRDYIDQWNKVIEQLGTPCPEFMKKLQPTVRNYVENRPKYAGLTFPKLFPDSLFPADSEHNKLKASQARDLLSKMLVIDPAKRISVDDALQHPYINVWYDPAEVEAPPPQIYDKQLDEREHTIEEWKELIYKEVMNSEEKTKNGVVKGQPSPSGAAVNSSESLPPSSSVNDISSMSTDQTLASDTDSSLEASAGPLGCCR
T1 sequence (Q07343 330-659 limits assumed): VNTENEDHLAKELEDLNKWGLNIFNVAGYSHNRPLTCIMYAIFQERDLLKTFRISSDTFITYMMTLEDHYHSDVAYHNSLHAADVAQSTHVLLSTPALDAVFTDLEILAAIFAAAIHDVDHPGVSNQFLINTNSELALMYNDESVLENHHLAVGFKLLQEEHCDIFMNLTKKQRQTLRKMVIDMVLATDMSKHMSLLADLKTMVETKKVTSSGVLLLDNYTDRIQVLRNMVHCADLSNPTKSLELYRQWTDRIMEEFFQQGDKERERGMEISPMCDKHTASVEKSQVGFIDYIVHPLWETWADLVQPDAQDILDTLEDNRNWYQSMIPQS
T4 sequence (P45984 whole entry): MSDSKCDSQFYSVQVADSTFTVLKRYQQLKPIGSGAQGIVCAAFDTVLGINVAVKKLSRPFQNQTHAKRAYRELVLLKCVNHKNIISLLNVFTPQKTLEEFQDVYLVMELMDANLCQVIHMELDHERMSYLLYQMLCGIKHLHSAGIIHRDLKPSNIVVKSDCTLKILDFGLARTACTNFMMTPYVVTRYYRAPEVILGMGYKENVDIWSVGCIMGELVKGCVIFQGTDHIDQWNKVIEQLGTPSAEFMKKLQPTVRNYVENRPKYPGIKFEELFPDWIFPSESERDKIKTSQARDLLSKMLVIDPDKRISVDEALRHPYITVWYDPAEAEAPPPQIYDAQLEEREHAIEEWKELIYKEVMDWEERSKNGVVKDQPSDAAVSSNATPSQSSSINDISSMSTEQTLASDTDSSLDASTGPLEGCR

| IC50 [1] | IC50 [2] | IC50 [3] | Structure (SMILES) | also measured |
| --- | --- | --- | --- | --- |
| > 100 µM | 12 µM | > 100 µM | CC(C)c1nn2ccccc2c1-c1ccnc(NC2CCCC2)c1 [AV1021, N-cyclopentyl-4-(-2-isopropylpyrazolo[1,5-a]pyridin-3-yl)pyridin-2-amine] | – |
| 5.9 µM | 42 µM | 27 µM | CCC(CC)Nc1nccc(-c2c(C(C)C)nn3ccccc23)n1 [AV1155, 4-(2-isopropylpyrazolo[1,5-a]pyridin-3-yl)-N-(pentan-3-yl)pyrimidin-2-amine] | IP CCI efficacy (Change in grams) [4]: 0.67 grams; PDE-4 inhibition (in words) [1]: particularly effective |
| > 100 µM | > 100 µM | > 100 µM | CC(C)Nc1nccc(-c2c(C(C)(C)C)nn3ccccc23)n1 [AV1157, 4-(2-tert-butylpyrazolo[1,5-a]pyridin-3-yl)-N-isopropylpyrimidin-2-amine] | – |
| > 100 µM | > 100 µM | 0.2 µM | CC(C)Nc1nccc(-c2c(-c3cccc(F)c3)nn3ccccc23)n1 [AV1179, 4-(2-(3-fluorophenyl)pyrazolo[1,5-a]pyridin-3-yl)-N-isopropylpyrimidin-2-amine] | JNK-3 inhibition (in words) ([3]; see Table 2): particularly effective |
| 57 µM | > 100 µM | > 100 µM | CC(C)Nc1nccc(-c2cccc3cc(C(C)C)nn23)n1 [AV1185, N-isopropyl-4-(2-isopropylpyrazolo[1,5-a]pyridin-7-yl)pyrimidin-2-amine] | – |
| – | > 100 µM | > 100 µM | CC(C)c1cc2cccc(-c3ccnc(NC4CCCC4)n3)n2n1 [AV1186, N-cyclopentyl-4-(2-isopropylpyrazolo[1,5-a]pyridin-7-yl)pyrimidin-2-amine] | – |
| – | > 100 µM | > 100 µM | CC(C)Nc1nccc(-c2cccc3ccnn23)n1 [AV1187, N-isopropyl-4-(pyrazolo[1,5-a]pyridin-7-yl)pyrimidin-2-amine] | – |
| – | > 100 µM | > 100 µM | c1cc(-c2ccnc(NC3CCCC3)n2)n2nccc2c1 [AV1188, N-cyclopentyl-4-(pyrazolo[1,5-a]pyridin-7-yl)pyrimidin-2-amine] | – |
| – | > 100 µM | > 100 µM | CC(C)c1nn2ccccc2c1-c1ccnc(NS(C)(=O)=O)n1 [AV1189] | – |
| 43 µM | 7.1 µM | > 100 µM | CC(C)c1nn2ccccc2c1-c1ccc(NC2CCCC2)nc1 [AV1199, N-cyclopentyl-5-(2-isopropylpyrazolo[1,5-a]pyridin-3-yl)pyridin-2-amine] | PDE-10 inhibition (in words) [2]: particularly effective |
| 24 µM | 3.2 µM | > 100 µM | CC(C)c1nn2ccccc2c1-c1cnc(NC2CCCC2)nc1 [AV1207, N-cyclopentyl-5-(-2-isopropylpyrazolo[1,5-a]pyridin-3-yl)pyrimidin-2-amine] | – |

More lines, now with the values behind:

| Structure (SMILES) | IC50 [1] | IC50 [2] | IC50 [3] | also measured |
| --- | --- | --- | --- | --- |
| CC(C)c1nn2ccccc2c1-c1ccnc(N)c1 [AV105, 4-(-2-isopropylpyrazolo[1,5-a]pyridin-3-yl)pyridin-2-amine] | 22 µM | > 100 µM | > 100 µM | – |
| CC(C)c1nn2ccccc2c1-c1ccnc(NCCCN2CCN(C)CC2)n1 [AV1135, 4-(2-isopropylpyrazolo[1,5-a]pyridin-3-yl)-N-(3-(4-methylpiperazin-1-yl)propyl)pyrimidin-2-amine] | > 100 µM | 19 µM | 83 µM | IP CCI efficacy (Change in grams) [4]: 0 grams |
| CC(C)c1nn2ccccc2c1-c1ccnc(N)n1 [AV1139, 4-(2-isopropylpyrazolo[1,5-a]pyridin-3-yl)pyrimidin-2-amine] | > 100 µM | > 100 µM | 18 µM | IP CCI efficacy (Change in grams) [4]: 0.21 grams |
| CC(C)c1nn2ccccc2c1-c1ccnc(NC2CCNC2)n1 (centres unmarked) [AV1159, 4-(2-isopropylpyrazolo[1,5-a]pyridin-3-yl)-N-(pyrrolidin-3-yl)pyrimidin-2-amine] | – | – | – | IP CCI efficacy (Change in grams) [4]: 0 grams |
| CC(C)c1nn2ccccc2c1-c1ccnc(NS(=O)(=O)c2ccccc2)n1 [AV1190] | 40 µM | – | > 100 µM | – |
| Cc1nn2ccccc2c1-c1ccnc(NS(=O)(=O)c2ccsc2)n1 [AV1191] | 6.8 µM | > 100 µM | > 100 µM | – |
| O=S(=O)(Nc1nccc(-c2cnn3ccccc23)n1)c1ccccc1 [AV1193] | 9.4 µM | > 100 µM | 53 µM | – |
| CC(C)c1nn2ccccc2c1-c1ccc(N)nc1 [AV1196, 5-(2-isopropylpyrazolo[1,5-a]pyridin-3-yl)pyridin-2-amine] | 20.8 µM | 8.3 µM | 68 µM | PDE-4 inhibition (in words) [1]: particularly effective; PDE-10 inhibition (in words) [2]: particularly effective |
| CC(C)Nc1ccc(-c2c(C(C)C)nn3ccccc23)cn1 [AV1197, N-isopropyl-5-(2-isopropylpyrazolo[1,5-a]pyridin-3-yl)pyridin-2-amine] | 50.5 µM | 17 µM | > 100 µM | – |
| CC(C)Nc1cc(-c2c(C(C)C)nn3ccccc23)ccn1 [AV1202, N-isopropyl-4-(-2-isopropylpyrazolo[1,5-a]pyridin-3-yl)pyridin-2-amine] | > 100 µM | 13 µM | > 100 µM | – |
| CC(C)c1nn2ccccc2c1-c1cnc(N)nc1 [AV1203, 5-(-2-isopropylpyrazolo[1,5-a]pyridin-3-yl)pyrimidin-2-amine] | 9.9 µM | 3.8 µM | > 10 µM | EC50 ([5]; read-out: MCP-1 BV-2 (EC50 in μM)): 0.3 µM; EC50 ([5]; read-out: TNF-a BV-2 (EC50 in μM)): 0.8 µM; IC50 [6]: > 100 µM |
| CC(C)Nc1ncc(-c2c(C(C)C)nn3ccccc23)cn1 [AV1206, N-isopropyl-5-(-2-isopropylpyrazolo[1,5-a]pyridin-3-yl)pyrimidin-2-amine] | 43 µM | 7.4 µM | > 100 µM | – |
| CC(C)c1nn2ccccc2c1-c1ccnc(N(C)C)c1 [AV1208, 4-(-2-isopropylpyrazolo[1,5-a]pyridin-3-yl)-N,N-dimethylpyridin-2-amine] | 3.9 µM | 5.4 µM | > 100 µM | – |
| COc1ccc(Cc2nccc3cc(OC)c(OC)cc23)cc1OC [Papaverine, reference compound] | – | – | – | IP CCI efficacy (Change in grams) [4]: 1.35 grams |
